This is an account of results in US10183936B2, “Hepatitis B core protein allosteric modulators” (priority 2014, dated 2019).

One series concerns AD38 cells. Description: Viability of AD38 cells (Promega CellTiter-Glo) at the end of compound treatment. In kind it is cell-based. The conditions noted are these: 10 μM compound, 6 days, luminescence normalized against DMSO control wells (controls being 100%). In outline: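 Luminescent CellTiter-Glo read-out, taken after supernatant was swapped for tetracycline-free 2% FBS medium with 1% DMSO, gave percent viability relative to DMSO controls set at 100%. Cells were plated at 50,000/well and exposed to compound, added as a 10× stock in 10% DMSO, for 6 days at 37° C.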
In general terms: Cellular ATP, detected with luciferase, serves as a proxy for viable cell number.

The subject of series [1] is HBV viral production in AD38 cells. The experiment in a line: Viral load production in AD38 cells by quantitative PCR of the HBV core sequence in supernatant. It counts as cell-based. The conditions noted are these: Hepatitis B virus, 144 h; 10 μM compound, 6 days at 37° C., viral load in supernatant compared against DMSO control wells; read-out: AD38 Viral Load (CpAM/DMSO %) at 10 μM. In outline: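 Read-out is TaqMan qPCR of the HBV core region in supernatant, quantitated against standards and referenced to DMSO controls (≥3 per plate). Cells: AD38 at 50,000/well, exposed to compound (added as 10× stock in 10% DMSO) for 6 days at 37° C.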

Turning to `O=C(NCc1cccc(F)c1)c1ccc2c(c1)NC(=O)c1ccccc1S2(=O)=O` [Compound 1622], in the series on AD38 cells, the “AD38 Viability Normalized Result (CPAM/DMSO %) at 10 μM” value is reported as 120%. The activity at 10 µM in series [1] is 0%.
The matching figures for `O=C(NCc1ccc(F)cc1)c1ccc2c(c1)NC(=O)c1ccccc1S2(=O)=O` [Compound 1623]: 128% and 1%.
The matching figures for `O=C(NCc1cccc(OC(F)(F)F)c1)c1ccc2c(c1)NC(=O)c1ccccc1S2(=O)=O` [Compound 1624]: 136% and 1%.
With `O=C(NCCOc1ccccc1)c1ccc2c(c1)NC(=O)c1ccccc1S2(=O)=O` [Compound 1625], the “AD38 Viability Normalized Result (CPAM/DMSO %) at 10 μM” value in the series on AD38 cells was 111%. Moreover, in series [1], the activity at 10 µM was 2%.
On to `O=C(NCCc1ccc(-n2nccn2)cc1)c1ccc2c(c1)NC(=O)c1ccccc1S2(=O)=O` [Compound 1626], for which, in the series on AD38 cells, the “AD38 Viability Normalized Result (CPAM/DMSO %) at 10 μM” value was 118%. The activity at 10 µM in series [1] was found to be 0%.
On to `O=C(NCc1ccc(-c2cncnc2)cc1)c1ccc2c(c1)NC(=O)c1ccccc1S2(=O)=O` [Compound 1627], for which, in the series on AD38 cells, the “AD38 Viability Normalized Result (CPAM/DMSO %) at 10 μM” value came out at 115%. Further, the activity at 10 µM in series [1] came out at 5%.
Take `COC(=O)c1ccccc1-c1cccc(NC(=O)c2ccc3c(c2)NC(=O)c2ccccc2S3(=O)=O)c1` [Compound 1628]: the “AD38 Viability Normalized Result (CPAM/DMSO %) at 10 μM” value in the series with AD38 cells was 138%. Besides, the activity at 10 µM in series [1] was determined as 17%.
Regarding `O=C(Nc1cccc(-c2cccnc2)c1)c1ccc2c(c1)NC(=O)c1ccccc1S2(=O)=O` [Compound 1629], the “AD38 Viability Normalized Result (CPAM/DMSO %) at 10 μM” value with AD38 cells came to 95%. Further, the activity at 10 µM in series [1] was 3%.
The matching figures for `CCc1ncsc1CNC(=O)c1ccc2c(c1)NC(=O)c1ccccc1S2` [Compound 1631]: 112% and 9%.
The matching figures for `O=C(NCc1scnc1Cl)c1ccc2c(c1)NC(=O)c1ccccc1S2` [Compound 1632]: 122% and 2%.
In the same order, the values of `Cl.O=C(NCC1CCCN1)c1ccc2c(c1)NC(=O)c1ccccc1S2` (stereo not drawn) [Compound 1633, 11-oxo-N-(pyrrolidin-2-ylmethyl)-10, 11-dihydrodibenzo [b,f] [1,4] thiazepine-8-carboxamide hydrochloride] are 124% and 66%.
As to `O=C(Nc1nccs1)c1ccc2c(c1)NC(=O)c1ccccc1S2(=O)=O` [Compound 1634], the “AD38 Viability Normalized Result (CPAM/DMSO %) at 10 μM” value with AD38 cells is 125%. Besides, the activity at 10 µM in series [1] was 45%.
In the same order, the values of `O=C(NCc1cnc(-c2ccccc2)nc1)c1ccc2c(c1)NC(=O)c1ccccc1S2(=O)=O` [Compound 1635] are 93% and 1%.
In the case of `O=C(NCCC1CCCO1)c1ccc2c(c1)NC(=O)c1ccccc1S2(=O)=O` (stereo not drawn) [Compound 1636], the “AD38 Viability Normalized Result (CPAM/DMSO %) at 10 μM” value in the series with AD38 cells was 111%. In series [1], the activity at 10 µM was determined as 0%.
`O=C(Nc1nc2ccc(F)cc2s1)c1ccc2c(c1)NC(=O)c1ccccc1S2(=O)=O` [Compound 1637]: the “AD38 Viability Normalized Result (CPAM/DMSO %) at 10 μM” value in the series with AD38 cells stood at 123%. Besides, the activity at 10 µM in series [1] was determined as 32%.
